{"source": "patent US6878690B2", "about": "“Compounds and methods” (PharmAxis Pty Ltd., priority 2000, dated 2005)", "tested_on": "T lymphocyte migration into the right ear", "assay": "Inhibition of in vivo migration of T lymphocytes into extra lymphatic tissues (picryl chloride treated ear)", "set-up": "species or system Balb/C mice", "conditions": "5 mg per mouse, IV, 9 to 10 hours after cell transfer", "source_text": "T lymphocytes are known to migrate from the blood stream into tissues, including tissues that contain an antigen to which they can respond. An in vivo example of T lymphocyte migration involves the intravenous injection of radioisotopically- or fluorescently-labelled antigen-specific T cells into a mammal that has the antigen present in one or more of its tissues. An assessment of the degree to which the injected T cells have accumulated in the antigen-containing tissue can be made either by measuring the amount of radioactivity present in the tissue or analysing the tissue histologically to determine the number of infiltrated fluorescently labelled cells. […] For example, in the case of a CNS antigen the cells will localise in the brain and spinal cord and the number of labelled cells that have accumulated there can then be determined. […] Within a short time of cell transfer sensitised T cells begin to accumulate in the haptenised tissue and eight to twenty-four hours later the tissue can be removed and the cell accumulation assessed. In the case of fluorescently-labelled cells their accumulation is assessed histologically and in the case of the radio-labelled cells accumulation is assessed by counting radio active decay in a suitable device. […]"}
{"substance": "Phenylethyl (3,4,5-trihydroxy-6-phosphonooxymethyl-tetrahydro-pyran-2-yl)-acetic acid ester", "values": [{"measurement": "Percent inhibition of T cell migration", "result": 26.1, "unit": "%"}]}
